Assay results from ChEMBL document CHEMBL4308841, “Synthesis, in vitro antiproliferative activity, and kinase inhibitory effects of pyrazole-containing diarylureas and diarylamides” (Eur J Med Chem, 2018).
pIC50: −log10 of the molar value.

Experiments:
MDA-MB-231 = test: Growth inhibition of human MDA-MB-231 cells assessed as cell growth at 1 uM incubated for 48 hrs by sulforhodamine B assay relative to control; type: functional; conditions: MDA-MB-231, 48 h, read-out: Activity
SN12C = test: Growth inhibition of human SN12C cells assessed as cell growth at 1 uM incubated for 48 hrs by sulforhodamine B assay relative to control; type: functional; conditions: read-out: Activity
BT-549 = test: Growth inhibition of human BT549 cells assessed as cell growth at 0.1 uM incubated for 48 hrs by sulforhodamine B assay relative to control; type: functional; conditions: BT-549, 48 h, read-out: Activity
HL-60(TB) = test: Growth inhibition of human HL-60(TB) cells assessed as cell growth at 0.1 uM incubated for 48 hrs by sulforhodamine B assay relative to control; type: functional; conditions: HL-60, 48 h, read-out: Activity
HT-29 = test: Growth inhibition of human HT-29 cells assessed as cell growth at 10 uM incubated for 48 hrs by sulforhodamine B assay relative to control; type: functional; conditions: HT-29, 48 h, read-out: Activity
UACC-62 [1] = test: Growth inhibition of human UACC62 cells assessed as cell growth at 0.1 uM incubated for 48 hrs by sulforhodamine B assay relative to control; type: functional; conditions: UACC-62, 48 h, read-out: Activity
NCI-H322M = test: Growth inhibition of human NCI-H322M cells incubated for 48 hrs by sulforhodamine B assay; type: functional, cell-based
NCI/ADR-RES = test: Growth inhibition of human NCI/ADR-RES cells incubated for 48 hrs by sulforhodamine B assay; type: functional, cell-based
RXF 393 [2] = test: Growth inhibition of human RXF393 cells assessed as cell growth at 100 uM incubated for 48 hrs by sulforhodamine B assay relative to control; type: functional; conditions: RXF 393, 48 h, read-out: Activity
SW-620 = test: Growth inhibition of human SW620 cells assessed as cell growth at 100 uM incubated for 48 hrs by sulforhodamine B assay relative to control; type: functional; conditions: SW-620, 48 h, read-out: Activity
Hs-578T = test: Growth inhibition of human Hs578T cells assessed as cell growth at 0.01 uM incubated for 48 hrs by sulforhodamine B assay relative to control; type: functional; conditions: read-out: Activity
786-0 = test: Growth inhibition of human 786-0 cells assessed as cell growth at 0.1 uM incubated for 48 hrs by sulforhodamine B assay relative to control; type: functional; conditions: 786-0, 48 h, read-out: Activity
HOP-62 = test: Growth inhibition of human HOP62 cells assessed as cell growth at 100 uM incubated for 48 hrs by sulforhodamine B assay relative to control; type: functional; conditions: HOP-62, 48 h, read-out: Activity
RXF 393 [3] = test: Growth inhibition of human RXF393 cells incubated for 48 hrs by sulforhodamine B assay; type: functional, cell-based; conditions: RXF 393, 48 h
UO-31 [4] = test: Growth inhibition of human UO31 cells incubated for 48 hrs by sulforhodamine B assay; type: functional, cell-based; conditions: UO-31, 48 h
UACC-62 [5] = test: Growth inhibition of human UACC62 cells assessed as cell growth at 0.01 uM incubated for 48 hrs by sulforhodamine B assay relative to control; type: functional; conditions: UACC-62, 48 h, read-out: Activity
NCI-H522 = test: Growth inhibition of human NCI-H522 cells incubated for 48 hrs by sulforhodamine B assay; type: functional, cell-based; conditions: NCI-H522, 48 h
K562 [6] = test: Growth inhibition of human K562 cells assessed as cell growth at 100 uM incubated for 48 hrs by sulforhodamine B assay relative to control; type: functional; conditions: K562, 48 h, read-out: Activity
SK-MEL-28 = test: Growth inhibition of human SK-MEL-28 cells assessed as cell growth at 0.01 uM incubated for 48 hrs by sulforhodamine B assay relative to control; type: functional; conditions: SK-MEL-28, 48 h, read-out: Activity
SK-OV-3 = test: Growth inhibition of human SKOV3 cells assessed as cell growth at 100 uM incubated for 48 hrs by sulforhodamine B assay relative to control; type: functional; conditions: SK-OV-3, 48 h, read-out: Activity
UACC-257 = test: Growth inhibition of human UACC257 cells assessed as cell growth at 100 uM incubated for 48 hrs by sulforhodamine B assay relative to control; type: functional; conditions: UACC-257, 48 h, read-out: Activity
ACHN = test: Growth inhibition of human ACHN cells incubated for 48 hrs by sulforhodamine B assay; type: functional, cell-based
LOX IMVI = test: Growth inhibition of human LOXIMVI cells assessed as cell growth at 100 uM incubated for 48 hrs by sulforhodamine B assay relative to control; type: functional; conditions: read-out: Activity
MOLT-4 = test: Growth inhibition of human MOLT4 cells assessed as cell growth at 0.01 uM incubated for 48 hrs by sulforhodamine B assay relative to control; type: functional; conditions: MOLT-4, 48 h, read-out: Activity
K562 [7] = test: Growth inhibition of human K562 cells assessed as cell growth at 0.1 uM incubated for 48 hrs by sulforhodamine B assay relative to control; type: functional; conditions: K562, 48 h, read-out: Activity
UO-31 [8] = test: Growth inhibition of human UO31 cells assessed as cell growth at 1 uM incubated for 48 hrs by sulforhodamine B assay relative to control; type: functional; conditions: UO-31, 48 h, read-out: Activity
Malme-3M = test: Growth inhibition of human MALME-3M cells incubated for 48 hrs by sulforhodamine B assay; type: functional, cell-based
RXF 393 [9] = test: Growth inhibition of human RXF393 cells assessed as cell growth at 0.01 uM incubated for 48 hrs by sulforhodamine B assay relative to control; type: functional; conditions: RXF 393, 48 h, read-out: Activity
OVCAR-8 = test: Growth inhibition of human OVCAR8 cells assessed as cell growth at 0.01 uM incubated for 48 hrs by sulforhodamine B assay relative to control; type: functional; conditions: OVCAR-8, 48 h, read-out: Activity
HCT-15 = test: Growth inhibition of human HCT15 cells assessed as cell growth at 0.1 uM incubated for 48 hrs by sulforhodamine B assay relative to control; type: functional; conditions: HCT-15, 48 h, read-out: Activity
[10] = read-out: LC50 (the source's name)
[11] = read-out: pLC50 (the source's name) (converted)

Q: COc1cc(Cl)cc(-c2nn(-c3cccc(NC(=O)Nc4cccc(C(F)(F)F)c4)c3)cc2-c2ccncc2)c1 was tested. Which growth at 1 µM (MDA-MB-231) did it give?
A: 71%

Q: And the growth at 1 µM (SN12C)?
A: 59%

Q: And the growth at 0.1 µM (BT-549)?
A: 114%

Q: What about the growth at 0.1 µM (HL-60(TB)) of the same compound?
A: 98%

Q: What about the growth at 10 µM (HT-29) of the same compound?
A: 5.75%

Q: And the growth at 0.1 µM (UACC-62 [1])?
A: 96%

Q: What about the GI50 (NCI-H322M; read-out: GI50) of the same compound?
A: 2.53 µM

Q: What about the CC50 (NCI-H322M; [10]) of the same compound?
A: > 100 µM

Q: What about the TGI (NCI-H322M; read-out: TGI) of the same compound?
A: 22.9 µM

Q: What about the GI50 (NCI-H322M; read-out: pGI50 (converted)) of the same compound?
A: 2.63 µM

Q: What about the CC50 (NCI-H322M; [11]) of the same compound?
A: > 100 µM

Q: And the TGI (NCI-H322M; read-out: pTGI (converted))?
A: 22.4 µM

Q: And the GI50 (NCI/ADR-RES; read-out: GI50)?
A: 1.65 µM

Q: What about the CC50 (NCI/ADR-RES; [10]) of the same compound?
A: > 100 µM

Q: What about the TGI (NCI/ADR-RES; read-out: TGI) of the same compound?
A: 75.1 µM

Q: And the GI50 (NCI/ADR-RES; read-out: pGI50 (converted))?
A: 1.66 µM

Q: And the CC50 (NCI/ADR-RES; [11])?
A: > 100 µM

Q: What about the TGI (NCI/ADR-RES; read-out: pTGI (converted)) of the same compound?
A: 7.76 µM

Q: And the growth at 100 µM (RXF 393 [2])?
A: -80%

Q: What about the growth at 100 µM (SW-620) of the same compound?
A: -11%

Q: What about the growth at 0.01 µM (Hs-578T) of the same compound?
A: 99%

Q: What about the growth at 0.1 µM (786-0) of the same compound?
A: 99%

Q: What about the growth at 100 µM (HOP-62) of the same compound?
A: -41%

Q: And the LC50 (RXF 393 [3])?
A: 36.3 µM

Q: What about the GI50 (RXF 393 [3]; read-out: GI50) of the same compound?
A: 1.4 µM

Q: And the TGI (RXF 393 [3]; read-out: TGI)?
A: 43.5 µM

Q: And the GI50 (RXF 393 [3]; read-out: pGI50 (converted))?
A: 1.41 µM

Q: And the TGI (RXF 393 [3]; read-out: pTGI (converted))?
A: 4.37 µM

Q: What about the pIC50 (UO-31 [4]) of the same compound?
A: 5.99

Q: What about the GI50 (UO-31 [4]; read-out: GI50) of the same compound?
A: 1.03 µM

Q: And the CC50 (UO-31 [4]; [10])?
A: > 100 µM

Q: What about the TGI (UO-31 [4]; read-out: TGI) of the same compound?
A: 77.5 µM

Q: And the GI50 (UO-31 [4]; read-out: pGI50 (converted))?
A: 1.02 µM

Q: What about the CC50 (UO-31 [4]; [11]) of the same compound?
A: > 100 µM

Q: And the TGI (UO-31 [4]; read-out: pTGI (converted))?
A: 7.76 µM

Q: And the growth at 0.01 µM (UACC-62 [5])?
A: 96%

Q: And the GI50 (NCI-H522; read-out: GI50)?
A: 0.445 µM

Q: What about the CC50 (NCI-H522; [10]) of the same compound?
A: 10 µM

Q: And the TGI (NCI-H522; read-out: TGI)?
A: 25.1 µM

Q: What about the CC50 (NCI-H522; [11]) of the same compound?
A: 10.2 µM

Q: And the growth at 100 µM (K562 [6])?
A: -22%

Q: What about the growth at 0.01 µM (SK-MEL-28) of the same compound?
A: 99%

Q: And the growth at 100 µM (SK-OV-3)?
A: -3%

Q: What about the growth at 100 µM (UACC-257) of the same compound?
A: -72%

Q: What about the GI50 (ACHN; read-out: GI50) of the same compound?
A: 1.72 µM

Q: And the CC50 (ACHN; [10])?
A: > 100 µM

Q: And the TGI (ACHN; read-out: TGI)?
A: 15.2 µM

Q: And the GI50 (ACHN; read-out: pGI50 (converted))?
A: 1.7 µM

Q: What about the CC50 (ACHN; [11]) of the same compound?
A: > 100 µM

Q: What about the TGI (ACHN; read-out: pTGI (converted)) of the same compound?
A: 16.2 µM

Q: And the growth at 100 µM (LOX IMVI)?
A: -53%

Q: What about the growth at 0.01 µM (MOLT-4) of the same compound?
A: 95%

Q: And the growth at 0.1 µM (K562 [7])?
A: 94%

Q: And the growth at 1 µM (UO-31 [8])?
A: 51%

Q: What about the GI50 (Malme-3M; read-out: GI50) of the same compound?
A: 1.79 µM

Q: And the CC50 (Malme-3M; [10])?
A: > 100 µM

Q: And the TGI (Malme-3M; read-out: TGI)?
A: 59.1 µM

Q: What about the GI50 (Malme-3M; read-out: pGI50 (converted)) of the same compound?
A: 1.78 µM

Q: And the CC50 (Malme-3M; [11])?
A: > 100 µM

Q: And the TGI (Malme-3M; read-out: pTGI (converted))?
A: 5.89 µM

Q: And the growth at 0.01 µM (RXF 393 [9])?
A: 93%

Q: And the growth at 0.01 µM (OVCAR-8)?
A: 97%

Q: What about the growth at 0.1 µM (HCT-15) of the same compound?
A: 83%
